Test results from article PMC5869686 (Journal of the American Chemical Society, 2018).

Target: succinate dehydrogenase (mitochondrial Sdh, complex II) (Bos taurus, UniProt P35720+Q3T189+Q95123)
Test: colorimetric mitochondrial complex II activity assay
Assay type: biochemical

Sequence of succinate dehydrogenase (mitochondrial Sdh, complex II) (P35720 30-169): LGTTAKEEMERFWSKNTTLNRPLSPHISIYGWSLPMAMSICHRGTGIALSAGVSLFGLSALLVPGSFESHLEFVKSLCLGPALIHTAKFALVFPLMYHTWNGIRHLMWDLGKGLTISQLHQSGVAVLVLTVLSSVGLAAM
Sequence of succinate dehydrogenase (mitochondrial Sdh, complex II) (Q3T189 29-280): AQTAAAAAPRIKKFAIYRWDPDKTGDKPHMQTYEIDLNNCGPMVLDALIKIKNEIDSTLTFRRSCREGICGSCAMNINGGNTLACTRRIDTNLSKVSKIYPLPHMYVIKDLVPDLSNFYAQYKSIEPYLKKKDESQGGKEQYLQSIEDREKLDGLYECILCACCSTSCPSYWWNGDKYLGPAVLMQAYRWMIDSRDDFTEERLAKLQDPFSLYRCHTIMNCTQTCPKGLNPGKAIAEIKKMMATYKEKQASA
Sequence of succinate dehydrogenase (mitochondrial Sdh, complex II) (Q95123 56-158): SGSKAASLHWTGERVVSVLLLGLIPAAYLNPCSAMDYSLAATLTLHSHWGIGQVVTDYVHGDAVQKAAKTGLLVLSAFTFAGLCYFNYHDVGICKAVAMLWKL
Sequence of succinate dehydrogenase (mitochondrial Sdh, complex II) (P31039 44-665 partner): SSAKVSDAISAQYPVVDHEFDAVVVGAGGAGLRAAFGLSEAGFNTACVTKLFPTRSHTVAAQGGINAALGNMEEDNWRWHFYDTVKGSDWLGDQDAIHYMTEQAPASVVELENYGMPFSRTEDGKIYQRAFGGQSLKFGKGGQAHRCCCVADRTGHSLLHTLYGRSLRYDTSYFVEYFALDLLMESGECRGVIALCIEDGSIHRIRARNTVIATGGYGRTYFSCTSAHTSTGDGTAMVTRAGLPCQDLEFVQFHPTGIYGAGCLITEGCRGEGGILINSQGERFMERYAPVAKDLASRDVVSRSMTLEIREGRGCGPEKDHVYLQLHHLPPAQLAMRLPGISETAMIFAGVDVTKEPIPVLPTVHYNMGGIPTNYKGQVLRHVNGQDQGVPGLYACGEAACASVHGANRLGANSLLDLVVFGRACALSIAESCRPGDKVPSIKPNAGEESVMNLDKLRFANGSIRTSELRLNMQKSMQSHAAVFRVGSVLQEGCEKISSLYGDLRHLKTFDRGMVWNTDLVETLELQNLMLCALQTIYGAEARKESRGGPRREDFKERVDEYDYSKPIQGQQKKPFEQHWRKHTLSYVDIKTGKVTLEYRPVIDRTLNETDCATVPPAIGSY

promysalin [(-)-1] showed an IC50 of 2500 nM.
